According to ChEMBL document CHEMBL1134918, “General solid-phase method to prepare novel cyclic ketone inhibitors of the cysteine protease cruzain” (Bioorg Med Chem Lett, 2002):
pKi: −log10 of the molar value.

Key:
Cathepsin B = Cathepsin B (Homo sapiens, UniProt P07858); assay: Affinity for human Cathepsin B
Cruzipain = Cruzipain (Trypanosoma cruzi, UniProt P25779); assay: Affinity for cysteine protease (Cruzipain) of Chagas' disease
Procathepsin L = Procathepsin L (Homo sapiens, UniProt P07711); assay: Affinity for human Cathepsin L
Sequence of Procathepsin L (P07711 whole entry): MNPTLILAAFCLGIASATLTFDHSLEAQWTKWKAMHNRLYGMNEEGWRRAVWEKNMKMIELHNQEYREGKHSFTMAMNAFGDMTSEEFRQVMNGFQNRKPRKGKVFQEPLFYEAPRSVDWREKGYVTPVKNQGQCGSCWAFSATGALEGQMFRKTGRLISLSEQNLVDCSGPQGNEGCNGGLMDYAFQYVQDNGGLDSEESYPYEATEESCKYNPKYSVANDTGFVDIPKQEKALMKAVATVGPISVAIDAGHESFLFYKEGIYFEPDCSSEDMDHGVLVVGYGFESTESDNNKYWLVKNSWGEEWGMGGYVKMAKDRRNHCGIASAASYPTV

Sequence of Cruzipain (P25779 whole entry): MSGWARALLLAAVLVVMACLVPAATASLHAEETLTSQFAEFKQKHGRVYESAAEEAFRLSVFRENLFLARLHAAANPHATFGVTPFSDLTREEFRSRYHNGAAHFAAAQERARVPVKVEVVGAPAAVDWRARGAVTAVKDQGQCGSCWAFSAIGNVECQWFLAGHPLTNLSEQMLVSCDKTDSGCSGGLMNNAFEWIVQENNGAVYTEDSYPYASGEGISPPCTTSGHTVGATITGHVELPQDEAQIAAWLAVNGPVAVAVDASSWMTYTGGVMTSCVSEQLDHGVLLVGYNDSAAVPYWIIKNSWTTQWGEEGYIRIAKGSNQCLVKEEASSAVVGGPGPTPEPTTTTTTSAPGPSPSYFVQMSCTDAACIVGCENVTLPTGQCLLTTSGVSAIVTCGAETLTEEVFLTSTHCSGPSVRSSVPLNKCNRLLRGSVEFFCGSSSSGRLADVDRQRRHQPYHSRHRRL

pKi (Cathepsin B) | pKi (Cruzipain) | pKi (Procathepsin L) | SMILES
< 6.00 | – | – | CC(C)C[C@H](NC(=O)OCc1ccccc1)C(=O)NC1CN(C(=O)[C@H](CC(C)C)NC(=O)OCc2ccccc2)CC1=O (stereo partly specified)
– | 6.69 | – | O=C(N[C@@H](Cc1ccccc1)C(=O)NC1CC(=O)N(Cc2ccccc2)CC1=O)OCc1ccccc1 (stereo in doubt)
4.89 | 6.42 | 6.22 | CC(C)N1CC(=O)C(NC(=O)[C@H](Cc2ccccc2)NC(=O)OCc2ccccc2)CC1=O (stereo partly specified)
– | 7.79 | – | O=C(N[C@@H](Cc1ccccc1)C(=O)NC1CC(=O)N(CCCc2ccccc2)CC1=O)OCc1ccccc1 (stereo in doubt)
< 5.00 | – | – | CC(C)C[C@@H](C(=O)NCC(=O)CNS(=O)(=O)c1ccc(Oc2ccccc2)cc1)c1cccc(-c2ccccc2)c1
< 5.00 | 6.01 | 6.06 | COCCN1CC(=O)C(NC(=O)[C@H](Cc2ccccc2)NC(=O)OCc2ccccc2)CC1=O (stereo partly specified)
– | 7.27 | – | O=C(N[C@@H](Cc1ccccc1)C(=O)NC1CC(=O)N(CCc2ccccc2)CC1=O)OCc1ccccc1 (stereo in doubt)
4.88 | 6.69 | 6.42 | O=C(N[C@@H](Cc1ccccc1)C(=O)NC1CC(=O)N(Cc2ccccc2)CC1=O)OCc1ccccc1 (stereo in doubt; 4g)
5.21 | 7.28 | 7.03 | O=C(N[C@@H](Cc1ccccc1)C(=O)NC1CC(=O)N(CCc2ccccc2)CC1=O)OCc1ccccc1 (stereo in doubt; 4f)
5.34 | 6.56 | 6.52 | CC(C)CN1CC(=O)C(NC(=O)[C@H](Cc2ccccc2)NC(=O)OCc2ccccc2)CC1=O (stereo partly specified)
6.16 | 7.80 | 7.72 | O=C(N[C@@H](Cc1ccccc1)C(=O)NC1CC(=O)N(CCCc2ccccc2)CC1=O)OCc1ccccc1 (stereo in doubt; 4e)
4.98 | 6.44 | 6.63 | CCCN1CC(=O)C(NC(=O)[C@H](Cc2ccccc2)NC(=O)OCc2ccccc2)CC1=O (stereo partly specified)
